This assay is described as follows: Inhibition of matriptase (unknown origin) using Ac-RQFRpNA substrate by spectrophotometry method.

SMILES strings stand for the structures. Bridge positions count the residues as written; N and C are the ends. Peptide text beside a SMILES is read from it.

This is an account of results in BindingDB's records for doi:10.1021/acs.jmedchem.5b01148 (Queensland University of Technology, 2015).

The term Ki denotes a dissociation constant, usually derived from enzyme kinetics or from competition with a known ligand. Low readings indicate a stronger hold on the target, high ones a looser hold on the target.

On to `CC[C@H](C)[C@@H]1NC(=O)[C@H](CO)NC(=O)[C@H](CCCCN)NC(=O)[C@H]([C@@H](C)O)NC(=O)[C@@H](NC(=O)[C@H](CCCNC(=N)N)NC(=O)CN)CSSC[C@@H](C(=O)N[C@@H](Cc2cnc[nH]2)C(=O)O)NC(=O)[C@H](CCCNC(=N)N)NC(=O)[C@@H]2CCCN2C(=O)[C@@H]2CCCN2C1=O` (H-GRCTKSIPPRCH-OH; disulfide 3-11), for which the inhibitory constant (Ki) amounted to 82 nM. Take `CC[C@H](C)[C@@H]1NC(=O)[C@@H]2CCCN2C(=O)[C@@H]2CCCN2C(=O)[C@H]([C@@H](C)CC)NC(=O)[C@H](CO)NC(=O)[C@H](CCCNC(=N)N)NC(=O)[C@H]([C@@H](C)O)NC(=O)[C@@H]2CSSC[C@H](NC1=O)C(=O)N[C@@H](Cc1ccccc1)C(=O)N1CCC[C@H]1C(=O)N[C@H](C(=O)O)CC(=O)NCC(=O)N[C@@H](CCCNC(=N)N)C(=O)N2` (GRCTRSIPPICFPD-OH; disulfide 3-11; lactam N-14): the affinity corresponds to a Ki of 546 nM.

Regarding `C[C@@H](O)[C@@H]1NC(=O)[C@@H](NC(=O)[C@H](CCCNC(=N)N)NC(=O)CN)CSSC[C@@H](C(=O)N[C@@H](Cc2cnc[nH]2)C(=O)O)NC(=O)[C@H](CCCNC(=N)N)NC(=O)[C@@H]2CCCN2C(=O)[C@@H]2CCCN2C(=O)[C@H](CC(=O)O)NC(=O)[C@H](CO)NC(=O)[C@H](CCCCN)NC1=O` (H-GRCTKSDPPRCH-OH; disulfide 3-11), the inhibitory constant (Ki) was found to be 87 nM.

`CC[C@H](C)[C@@H]1NC(=O)[C@@H]2CCCN2C(=O)[C@@H]2CCCN2C(=O)[C@H](Cc2ccc(O)cc2)NC(=O)[C@H](CO)NC(=O)[C@H](CCCNC(=N)N)NC(=O)[C@H]([C@@H](C)O)NC(=O)[C@@H]2CSSC[C@H](NC1=O)C(=O)N[C@@H](Cc1ccccc1)C(=O)N1CCC[C@H]1C(=O)N[C@H](C(=O)O)CC(=O)NCC(=O)N[C@@H](CCCNC(=N)N)C(=O)N2` (GRCTRSYPPICFPD-OH; disulfide 3-11; lactam N-14) returned an inhibition constant Ki of more than 50000 nM.
